ChEMBL document CHEMBL4834480, “Discovery of 3,5-Dimethyl-4-Sulfonyl-1H-Pyrrole-Based Myeloid Cell Leukemia 1 Inhibitors with High Affinity, Selectivity, and Oral Bioavailability” (J Med Chem, 2021)
The source made the active and inactive calls. The rule behind the calls is not given here.

Columns and labels:
[1] = target: T1, Bcl-2-related protein A1 (Homo sapiens) (UniProt Q16548); experiment: Inhibition of FITC-labeled Bak BH3 peptide binding to GST-tagged BFL1 (1 to 151 residues) (unknown origin) expressed in Escherichia coli BL21 (DE3) at 10 uM incubated for 30 mins fluorescence polarization-based competitive binding assay relative to control
T1 sequence (whole entry): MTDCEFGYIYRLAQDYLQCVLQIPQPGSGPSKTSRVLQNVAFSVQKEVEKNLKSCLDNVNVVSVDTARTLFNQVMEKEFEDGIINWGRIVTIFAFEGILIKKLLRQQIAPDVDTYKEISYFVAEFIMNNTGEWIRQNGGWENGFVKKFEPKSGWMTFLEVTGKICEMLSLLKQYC

CYP2C9 = CYP2C9 (Homo sapiens, UniProt P11712); experiment: Inhibition of CYP2C9 (unknown origin) at 10 uM preincubated for 5 min followed by NADPH addition and measured after 20 mins by LC-MS/MS analysis relative to control; type: ADME; conditions: time 25 min
[2] = Cmax in Sprague-Dawley rat at 10 mg/kg, po measured up to 24 hrs by LC-MS/MS analysis; type: ADME, organism-based; set-up: route oral, dose 10 mg/kg, time <=24; conditions: in vivo
K562 = experiment: Antiproliferative activity against human K562 cells assessed as decrease in cell viability measured after 72 hrs by MTT assay; type: functional, cell-based; conditions: K562, 72 h
[3] = Stability of the compound in simulated intestinal fluid assessed as parent compound remaining measured after 6 hrs; type: ADME; conditions: read-out: Stabilty
MV4-11 = experiment: Induction of apoptosis in human MV4-11 cells xenografted in BALB/c nude mouse assessed as induction of PARP cleavage at 60 mg/kg, po administered every two days for 14 days by Western blot analysis; type: functional, organism-based; conditions: time 14.0 day
[4] = Toxicity in BALB/c nude mouse xenografted with human MV4-11 cells assessed as effect on liver at 20 mg/kg, ip administered every two days for 14 days by hematoxyin-eosin staining based analysis; type: organism-based; conditions: in vivo, 336 h, time 14 day
[5] = Toxicity in BALB/c nude mouse xenografted with human MV4-11 cells assessed as effect on body weight at 20 mg/kg, ip administered every two days for 14 days; type: organism-based; conditions: in vivo, 336 h, time 14 day
CYP2D6 = CYP2D6 (Homo sapiens, UniProt P10635); experiment: Inhibition of CYP2D6 (unknown origin) at 10 uM preincubated for 5 min followed by NADPH addition and measured after 20 mins by LC-MS/MS analysis relative to control; type: ADME; conditions: time 25 min
Sequence of CYP2D6 (P10635 whole entry): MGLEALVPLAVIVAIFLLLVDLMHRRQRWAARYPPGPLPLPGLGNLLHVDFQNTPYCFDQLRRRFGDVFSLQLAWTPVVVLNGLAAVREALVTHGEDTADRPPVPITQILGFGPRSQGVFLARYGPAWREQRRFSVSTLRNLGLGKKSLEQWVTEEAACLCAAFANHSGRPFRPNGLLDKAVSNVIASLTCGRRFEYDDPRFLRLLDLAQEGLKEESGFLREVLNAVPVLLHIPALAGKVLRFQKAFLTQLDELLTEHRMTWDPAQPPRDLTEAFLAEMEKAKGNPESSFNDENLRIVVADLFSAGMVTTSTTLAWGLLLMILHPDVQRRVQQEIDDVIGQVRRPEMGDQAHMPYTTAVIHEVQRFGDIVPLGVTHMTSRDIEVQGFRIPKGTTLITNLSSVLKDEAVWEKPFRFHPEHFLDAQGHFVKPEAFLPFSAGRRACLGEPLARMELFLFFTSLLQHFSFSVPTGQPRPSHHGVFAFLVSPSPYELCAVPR

Sequence of CYP2C9 (P11712 whole entry): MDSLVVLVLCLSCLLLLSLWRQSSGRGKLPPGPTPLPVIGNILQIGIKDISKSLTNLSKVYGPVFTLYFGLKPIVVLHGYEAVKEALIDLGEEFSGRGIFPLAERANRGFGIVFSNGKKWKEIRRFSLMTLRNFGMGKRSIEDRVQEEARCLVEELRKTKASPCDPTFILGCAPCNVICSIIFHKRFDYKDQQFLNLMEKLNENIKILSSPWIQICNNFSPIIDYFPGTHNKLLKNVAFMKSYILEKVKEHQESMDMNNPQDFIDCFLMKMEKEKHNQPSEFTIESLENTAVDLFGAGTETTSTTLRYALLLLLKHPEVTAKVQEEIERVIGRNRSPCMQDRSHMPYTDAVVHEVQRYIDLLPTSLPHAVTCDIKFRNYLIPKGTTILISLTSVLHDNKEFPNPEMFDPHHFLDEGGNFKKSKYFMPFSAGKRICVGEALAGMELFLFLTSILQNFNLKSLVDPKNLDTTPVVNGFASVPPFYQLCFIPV

CC(=O)c1ccc(S(=O)(=O)c2c(C)c(C(=O)O)n(CCCOc3cc(C)c(Cl)c(C)c3)c2C)cc1
inhibition [1]: 1.57%
inhibition at 20 min, 10 µM (CYP2C9): 26%
Cmax [2]: 2010 ng/mL
IC50 (K562): > 30 µM
remaining at 6 h [3]: 85.2%
Activity (MV4-11): Active
Activity [4]: Non-Toxic
Activity [5]: Non-Toxic
inhibition at 20 min, 10 µM (CYP2D6): 9.13%
